The values below come from ChEMBL document CHEMBL6078669, “Stereoisomers of cannabidiols and their pharmacological activities - A potentially novel direction for cannabinoids” (Bioorg Med Chem, 2025).

For test [1], the target named is G-protein coupled receptor 55 (Homo sapiens, UniProt Q9Y2T6). Put plainly: Antagonist activity at GPR55 (unknown origin).
The target in test [2] is Transient receptor potential cation channel subfamily M member 8 (Rattus norvegicus, UniProt Q8R455). Put plainly: Antagonist activity at recombinant rat TRPM8 expressed in HEK293 cells assessed as inhibition of icillin-induced intracellular calcium level preincubated with compound for 5 mins followed by icillin addition by Fluo-4AM based calcium assay. The class given is cell-based.

Test [3] addresses T1, Equilibrative nucleoside transporter 1 (Homo sapiens, UniProt Q99808).
T1 sequence (Q99808 whole entry): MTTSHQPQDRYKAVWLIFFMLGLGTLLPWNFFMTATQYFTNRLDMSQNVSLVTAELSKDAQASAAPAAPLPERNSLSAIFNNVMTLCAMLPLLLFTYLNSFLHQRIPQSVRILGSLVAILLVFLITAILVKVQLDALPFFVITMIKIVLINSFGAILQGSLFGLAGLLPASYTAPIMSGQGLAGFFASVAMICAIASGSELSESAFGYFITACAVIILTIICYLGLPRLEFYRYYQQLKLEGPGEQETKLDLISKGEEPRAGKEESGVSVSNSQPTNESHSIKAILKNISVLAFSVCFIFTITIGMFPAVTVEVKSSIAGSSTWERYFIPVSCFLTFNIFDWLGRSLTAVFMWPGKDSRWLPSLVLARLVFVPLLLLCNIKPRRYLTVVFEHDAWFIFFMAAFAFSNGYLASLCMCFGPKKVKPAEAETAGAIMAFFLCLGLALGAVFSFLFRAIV
Put plainly: Inhibition of ENT-1 (unknown origin).

Test [4] is described as follows: Inhibition of [14C]-arachidonoylethanolamide uptake in rat RBL-2H3 cells assessed as increase in AEA level incubated for 5 mins by scintillation counting. As to conditions: RBL-2H3, 5 min. The class given is functional, cell-based.
For test [5], the target named is Transient receptor potential cation channel subfamily A member 1 (Rattus norvegicus, UniProt Q6RI86). Put plainly: Agonist activity at recombinant rat TRPA1 expressed in HEK293 cells assessed as increase in [Ca2+]i by Fluo-4AM based calcium assay. In kind it is cell-based.
The target in test [6] is T2, Fatty-acid amide hydrolase 1 (Mus musculus, UniProt O08914).
T2 sequence (O08914 whole entry): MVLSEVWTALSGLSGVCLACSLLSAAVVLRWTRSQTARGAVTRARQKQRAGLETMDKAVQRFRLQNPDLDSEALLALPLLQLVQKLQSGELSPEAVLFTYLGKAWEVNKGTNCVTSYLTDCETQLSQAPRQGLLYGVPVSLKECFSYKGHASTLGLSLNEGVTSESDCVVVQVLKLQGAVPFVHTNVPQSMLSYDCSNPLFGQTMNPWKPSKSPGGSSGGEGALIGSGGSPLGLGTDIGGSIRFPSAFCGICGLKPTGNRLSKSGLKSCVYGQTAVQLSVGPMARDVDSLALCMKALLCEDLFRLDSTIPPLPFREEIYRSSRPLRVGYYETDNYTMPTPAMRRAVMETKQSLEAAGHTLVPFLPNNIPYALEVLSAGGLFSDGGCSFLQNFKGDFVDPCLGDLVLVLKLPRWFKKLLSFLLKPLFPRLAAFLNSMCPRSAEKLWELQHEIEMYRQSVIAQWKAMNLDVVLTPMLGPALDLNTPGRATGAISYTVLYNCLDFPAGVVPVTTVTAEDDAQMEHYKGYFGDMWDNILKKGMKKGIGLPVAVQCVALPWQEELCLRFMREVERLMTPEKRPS
Put plainly: Inhibition of FAAH-mediated [14C]-AEA hydrolysis in mouse N18TG2 cell membrane incubated for 30 mins by scintillation counting. In kind it is cell membranes.

Test [7] concerns the target T3, Transient receptor potential cation channel subfamily V member 1 (Homo sapiens, UniProt Q8NER1). Put plainly: Agonist activity at human TRPV1 receptor expressed in HEK293 cells assessed as effect on [Ca2+]i preincubated with capsazepine for 30 mins followed by compound addition by Fluo-3 probe based fluorescence analysis. The class given is cell-based.
Test [8] concerns the target Sodium channel protein type 9 subunit alpha (Homo sapiens, UniProt Q15858). Put plainly: Inhibition of human Nav1.7 expressed in HEK293 cells by whole cell electrophysiology recording. The class given is cell-based.
In test [9] the target is T4, D(2) dopamine receptor (Homo sapiens, UniProt P14416). Put plainly: Partial agonist activity at D2-high receptor (unknown origin).
In test [10] the target is T5, 5-hydroxytryptamine receptor 1A (Homo sapiens, UniProt P08908).
T5 sequence (P08908 whole entry): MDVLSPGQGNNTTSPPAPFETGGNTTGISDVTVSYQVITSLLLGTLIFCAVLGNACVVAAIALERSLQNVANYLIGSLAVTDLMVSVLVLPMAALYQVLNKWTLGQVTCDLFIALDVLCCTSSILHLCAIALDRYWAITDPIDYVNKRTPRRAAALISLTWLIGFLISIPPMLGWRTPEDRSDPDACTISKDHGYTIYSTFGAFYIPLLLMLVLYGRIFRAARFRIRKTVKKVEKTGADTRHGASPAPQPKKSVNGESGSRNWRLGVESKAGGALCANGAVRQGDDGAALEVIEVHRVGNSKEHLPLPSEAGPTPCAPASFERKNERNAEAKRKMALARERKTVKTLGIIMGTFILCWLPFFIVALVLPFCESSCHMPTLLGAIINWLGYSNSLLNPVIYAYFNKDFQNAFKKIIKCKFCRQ
Put plainly: Agonist activity at 5-HT1A (unknown origin). The class given is functional.

Test [11] concerns the target T3, Transient receptor potential cation channel subfamily V member 1. Put plainly: Agonist activity at recombinant human TRPV1 expressed in HEK293 cells assessed as increase in [Ca2+]i level by Fluo-4AM based calcium assay. The class given is cell-based.
Test [12] concerns the target T6, Transient receptor potential cation channel subfamily V member 2 (Rattus norvegicus, UniProt Q9WUD2).
T6 sequence (Q9WUD2 whole entry): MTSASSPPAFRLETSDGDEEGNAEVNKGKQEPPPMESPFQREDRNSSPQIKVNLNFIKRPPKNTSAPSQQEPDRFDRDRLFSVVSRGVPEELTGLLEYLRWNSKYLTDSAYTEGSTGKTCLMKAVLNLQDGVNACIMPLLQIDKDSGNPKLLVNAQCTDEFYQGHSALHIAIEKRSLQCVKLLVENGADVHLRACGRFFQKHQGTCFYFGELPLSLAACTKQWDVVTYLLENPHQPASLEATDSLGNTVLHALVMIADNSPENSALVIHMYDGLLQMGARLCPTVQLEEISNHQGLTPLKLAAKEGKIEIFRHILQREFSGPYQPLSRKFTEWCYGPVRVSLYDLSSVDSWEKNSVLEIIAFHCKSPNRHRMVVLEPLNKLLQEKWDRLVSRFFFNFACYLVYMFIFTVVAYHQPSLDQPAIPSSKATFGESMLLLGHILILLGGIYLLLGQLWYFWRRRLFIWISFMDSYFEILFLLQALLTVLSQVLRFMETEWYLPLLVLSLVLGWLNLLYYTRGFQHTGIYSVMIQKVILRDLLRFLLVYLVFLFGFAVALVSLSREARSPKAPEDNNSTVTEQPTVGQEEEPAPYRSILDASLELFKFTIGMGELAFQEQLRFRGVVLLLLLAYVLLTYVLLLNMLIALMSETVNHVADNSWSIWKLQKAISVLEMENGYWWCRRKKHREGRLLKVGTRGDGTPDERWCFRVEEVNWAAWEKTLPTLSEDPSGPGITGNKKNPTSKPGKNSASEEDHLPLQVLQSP
Put plainly: Agonist activity at recombinant rat TRPV2 expressed in HEK293 cells assessed as increase in [Ca2+]i by Fluo-4AM based calcium assay. In kind it is cell-based.

In test [13] the target is T4, D(2) dopamine receptor. Put plainly: Partial agonist activity at D2-low receptor (unknown origin).

T3 sequence (Q8NER1 whole entry): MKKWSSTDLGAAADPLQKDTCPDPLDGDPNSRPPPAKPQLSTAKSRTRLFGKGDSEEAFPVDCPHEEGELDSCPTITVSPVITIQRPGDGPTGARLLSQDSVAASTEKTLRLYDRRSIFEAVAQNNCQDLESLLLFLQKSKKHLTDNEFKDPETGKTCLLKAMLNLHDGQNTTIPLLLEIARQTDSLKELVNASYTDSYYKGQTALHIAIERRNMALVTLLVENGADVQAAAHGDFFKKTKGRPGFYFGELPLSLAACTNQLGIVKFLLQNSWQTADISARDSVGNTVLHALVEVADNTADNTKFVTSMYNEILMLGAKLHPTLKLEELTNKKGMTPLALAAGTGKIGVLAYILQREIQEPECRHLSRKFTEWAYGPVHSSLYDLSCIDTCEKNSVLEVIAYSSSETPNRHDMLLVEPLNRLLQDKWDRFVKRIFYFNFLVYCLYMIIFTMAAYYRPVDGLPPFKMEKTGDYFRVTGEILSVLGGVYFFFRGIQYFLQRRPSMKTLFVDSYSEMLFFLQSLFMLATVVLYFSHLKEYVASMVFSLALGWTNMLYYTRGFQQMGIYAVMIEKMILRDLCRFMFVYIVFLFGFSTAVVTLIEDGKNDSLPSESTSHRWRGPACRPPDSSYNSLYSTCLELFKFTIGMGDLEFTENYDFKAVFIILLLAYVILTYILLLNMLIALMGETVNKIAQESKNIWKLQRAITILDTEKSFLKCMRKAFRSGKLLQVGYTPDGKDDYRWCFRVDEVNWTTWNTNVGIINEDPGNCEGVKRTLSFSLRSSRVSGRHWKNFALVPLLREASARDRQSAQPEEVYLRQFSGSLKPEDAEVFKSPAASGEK
T4 sequence (P14416 whole entry): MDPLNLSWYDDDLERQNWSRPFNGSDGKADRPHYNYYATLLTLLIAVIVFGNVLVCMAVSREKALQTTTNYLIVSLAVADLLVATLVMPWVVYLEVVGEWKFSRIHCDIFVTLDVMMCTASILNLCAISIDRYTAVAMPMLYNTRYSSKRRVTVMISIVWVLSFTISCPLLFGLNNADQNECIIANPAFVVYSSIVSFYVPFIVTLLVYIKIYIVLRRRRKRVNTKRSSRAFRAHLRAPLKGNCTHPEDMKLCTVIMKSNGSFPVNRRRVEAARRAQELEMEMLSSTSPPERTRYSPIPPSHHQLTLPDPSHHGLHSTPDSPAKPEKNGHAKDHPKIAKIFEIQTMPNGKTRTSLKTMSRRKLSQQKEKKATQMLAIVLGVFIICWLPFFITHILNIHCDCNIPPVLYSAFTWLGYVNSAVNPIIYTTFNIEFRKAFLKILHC
Chain of G-protein coupled receptor 55 (Q9Y2T6 whole entry): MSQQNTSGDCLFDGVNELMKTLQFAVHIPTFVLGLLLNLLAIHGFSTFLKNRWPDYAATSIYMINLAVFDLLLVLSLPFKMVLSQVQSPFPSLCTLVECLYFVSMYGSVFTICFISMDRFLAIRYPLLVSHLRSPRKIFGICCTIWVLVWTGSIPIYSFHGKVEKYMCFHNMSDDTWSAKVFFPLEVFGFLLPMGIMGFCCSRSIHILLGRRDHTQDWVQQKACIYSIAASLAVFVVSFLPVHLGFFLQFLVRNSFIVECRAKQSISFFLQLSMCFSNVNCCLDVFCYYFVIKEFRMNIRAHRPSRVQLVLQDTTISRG
Chain of Sodium channel protein type 9 subunit alpha (Q15858 whole entry): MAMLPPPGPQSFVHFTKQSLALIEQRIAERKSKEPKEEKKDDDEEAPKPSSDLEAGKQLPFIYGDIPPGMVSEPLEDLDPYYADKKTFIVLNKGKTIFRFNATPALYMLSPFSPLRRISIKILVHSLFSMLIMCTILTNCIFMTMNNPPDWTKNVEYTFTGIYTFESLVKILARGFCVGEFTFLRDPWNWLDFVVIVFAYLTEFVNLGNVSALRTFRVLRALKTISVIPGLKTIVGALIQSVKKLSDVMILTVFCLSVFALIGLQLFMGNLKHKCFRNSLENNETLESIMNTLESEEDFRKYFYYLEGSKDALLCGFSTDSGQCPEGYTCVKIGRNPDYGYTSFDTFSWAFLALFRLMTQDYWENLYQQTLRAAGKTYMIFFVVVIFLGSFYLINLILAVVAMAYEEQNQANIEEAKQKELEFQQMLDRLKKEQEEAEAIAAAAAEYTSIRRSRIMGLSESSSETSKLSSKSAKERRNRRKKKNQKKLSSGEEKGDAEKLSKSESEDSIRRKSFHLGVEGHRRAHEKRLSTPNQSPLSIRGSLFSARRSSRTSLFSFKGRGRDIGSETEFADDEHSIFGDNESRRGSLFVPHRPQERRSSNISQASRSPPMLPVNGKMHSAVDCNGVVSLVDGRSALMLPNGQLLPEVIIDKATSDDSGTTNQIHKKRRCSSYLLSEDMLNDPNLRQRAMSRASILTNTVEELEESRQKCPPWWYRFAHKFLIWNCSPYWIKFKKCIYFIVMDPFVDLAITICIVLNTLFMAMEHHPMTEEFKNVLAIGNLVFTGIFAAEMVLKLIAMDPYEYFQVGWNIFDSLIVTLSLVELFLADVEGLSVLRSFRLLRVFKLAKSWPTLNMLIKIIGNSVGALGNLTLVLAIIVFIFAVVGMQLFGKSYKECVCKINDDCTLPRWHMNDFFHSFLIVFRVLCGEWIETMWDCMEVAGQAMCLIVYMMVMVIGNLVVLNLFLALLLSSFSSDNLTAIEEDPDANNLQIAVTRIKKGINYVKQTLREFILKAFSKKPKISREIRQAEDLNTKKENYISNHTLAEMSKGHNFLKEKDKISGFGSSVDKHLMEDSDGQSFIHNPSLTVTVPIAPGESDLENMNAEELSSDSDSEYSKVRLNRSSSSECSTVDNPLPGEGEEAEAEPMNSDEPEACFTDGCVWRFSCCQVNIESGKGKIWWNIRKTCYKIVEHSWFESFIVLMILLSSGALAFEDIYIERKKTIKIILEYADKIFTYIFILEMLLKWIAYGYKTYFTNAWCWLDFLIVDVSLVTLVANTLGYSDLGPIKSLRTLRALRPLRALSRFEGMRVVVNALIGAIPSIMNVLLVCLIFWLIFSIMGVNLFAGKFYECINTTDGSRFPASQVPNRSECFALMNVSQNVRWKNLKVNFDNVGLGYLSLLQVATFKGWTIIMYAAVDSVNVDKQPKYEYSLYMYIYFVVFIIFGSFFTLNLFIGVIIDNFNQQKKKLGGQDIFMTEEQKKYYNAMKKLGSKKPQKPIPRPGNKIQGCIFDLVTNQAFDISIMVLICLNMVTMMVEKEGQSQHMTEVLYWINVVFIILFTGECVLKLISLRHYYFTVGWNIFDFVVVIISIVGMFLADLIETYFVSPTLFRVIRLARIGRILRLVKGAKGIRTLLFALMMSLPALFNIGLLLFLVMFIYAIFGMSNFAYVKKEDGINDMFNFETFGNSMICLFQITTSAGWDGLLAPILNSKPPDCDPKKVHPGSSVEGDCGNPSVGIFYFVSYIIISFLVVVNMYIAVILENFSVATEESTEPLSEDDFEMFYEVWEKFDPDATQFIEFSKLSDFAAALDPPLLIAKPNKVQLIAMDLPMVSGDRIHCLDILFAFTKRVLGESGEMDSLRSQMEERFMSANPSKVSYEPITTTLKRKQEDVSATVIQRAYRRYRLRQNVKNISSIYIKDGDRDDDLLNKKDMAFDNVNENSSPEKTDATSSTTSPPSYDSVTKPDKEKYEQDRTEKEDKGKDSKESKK
Chain of Transient receptor potential cation channel subfamily M member 8 (Q8R455 whole entry): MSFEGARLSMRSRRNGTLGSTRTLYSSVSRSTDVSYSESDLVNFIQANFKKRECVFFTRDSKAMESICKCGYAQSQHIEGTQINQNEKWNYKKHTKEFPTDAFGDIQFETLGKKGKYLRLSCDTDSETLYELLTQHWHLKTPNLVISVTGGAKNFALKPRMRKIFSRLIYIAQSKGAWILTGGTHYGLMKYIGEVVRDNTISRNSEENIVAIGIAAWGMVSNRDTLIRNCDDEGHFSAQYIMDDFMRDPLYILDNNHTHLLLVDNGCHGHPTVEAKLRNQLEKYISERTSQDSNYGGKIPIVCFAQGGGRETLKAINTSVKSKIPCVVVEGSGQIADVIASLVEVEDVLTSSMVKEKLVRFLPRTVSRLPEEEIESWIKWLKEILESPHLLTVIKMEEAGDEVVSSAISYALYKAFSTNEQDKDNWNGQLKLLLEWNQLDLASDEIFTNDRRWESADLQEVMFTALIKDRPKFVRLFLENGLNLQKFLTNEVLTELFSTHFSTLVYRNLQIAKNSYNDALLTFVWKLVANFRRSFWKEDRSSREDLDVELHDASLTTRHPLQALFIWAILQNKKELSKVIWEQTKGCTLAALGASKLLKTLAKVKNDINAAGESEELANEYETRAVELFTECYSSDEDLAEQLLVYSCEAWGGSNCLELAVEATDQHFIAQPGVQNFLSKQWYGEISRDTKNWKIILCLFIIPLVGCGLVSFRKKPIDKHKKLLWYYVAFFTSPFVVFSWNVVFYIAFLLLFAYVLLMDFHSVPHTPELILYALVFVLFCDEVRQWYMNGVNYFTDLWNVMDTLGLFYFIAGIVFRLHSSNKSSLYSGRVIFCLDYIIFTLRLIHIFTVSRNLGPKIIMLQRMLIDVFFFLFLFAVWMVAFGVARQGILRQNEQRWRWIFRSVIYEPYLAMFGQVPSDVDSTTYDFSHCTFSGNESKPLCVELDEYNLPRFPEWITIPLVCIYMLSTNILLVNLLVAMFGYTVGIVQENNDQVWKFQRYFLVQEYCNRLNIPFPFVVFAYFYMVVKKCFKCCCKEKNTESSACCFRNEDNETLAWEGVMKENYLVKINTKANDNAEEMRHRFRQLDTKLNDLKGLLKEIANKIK

For `C=C(C)[C@@H]1CCC(C)=C[C@H]1c1c(O)cc(CCCCC)cc1O` [CANNABIDIOL], the IC50 in test [1] was determined as 445 nM; in [2] it was 60 nM; in [4], 22000 nM; in test [6], 27500 nM; in test [8] it was 1820 nM. Besides, the figures for the Ki (in test [3]; on D(2) dopamine receptor [9]; on D(2) dopamine receptor [13]) were 250 nM, 0.066 nM and 2800 nM, respectively. For the same compound, the EC50 in [5] stood at 110 nM; in [7], 3200 nM; in [10], 16000 nM; in [11], 1000 nM; in test [12] it was 1250 nM.
